Results from US20260209220A1, “SUBSTITUTED TETRAHYDROPYRROLO-PYRIDINONE COMPOUNDS AND THEIR USE IN TREATING MEDICAL CONDITIONS” (Karuna Therapeutics, Inc., priority 2022, published 2026).

Assays:
[1] = target: T1, rM4 receptors (Rattus norvegicus, UniProt P08485); assay: Rat M4 PAM PERK assay (CHO cells, TR-FRET, with EC20 acetylcholine); assay type: cell-based
T1 construct: expressed in transfected cells; host or cells: CHO cells
T1 sequence (P08485 1-478): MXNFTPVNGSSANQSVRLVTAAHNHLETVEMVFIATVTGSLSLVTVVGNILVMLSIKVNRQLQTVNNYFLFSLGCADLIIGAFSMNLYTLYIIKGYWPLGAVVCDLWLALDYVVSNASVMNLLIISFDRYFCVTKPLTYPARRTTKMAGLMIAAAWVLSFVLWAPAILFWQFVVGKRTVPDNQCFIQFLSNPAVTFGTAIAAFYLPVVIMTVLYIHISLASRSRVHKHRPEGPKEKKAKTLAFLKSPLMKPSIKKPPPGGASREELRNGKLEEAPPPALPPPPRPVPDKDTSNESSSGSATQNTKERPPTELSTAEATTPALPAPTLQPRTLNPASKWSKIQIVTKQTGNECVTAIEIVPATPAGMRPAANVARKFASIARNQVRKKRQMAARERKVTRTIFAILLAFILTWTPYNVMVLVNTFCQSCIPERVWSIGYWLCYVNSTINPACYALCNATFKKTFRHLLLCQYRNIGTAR
Experimental: (§1) Chinese hamster ovary (CHO) cells expressing either hM4 or rM4 receptors were frozen in assay ready vials (5×10^6 cells/vial) after bulking-up in culture. The day before an assay, vial(s) were thawed and cells seeded in 384 well white proxiplates at 1000/well for hM4 cells and at 2000/well for rM4 cells, in 10 μL of growth media (Hams/F12 with glutamax and 10% FCS) and incubated overnight at 37° C./5% CO2.
(§2) On the following morning, the growth media was removed by ‘flicking out’ over a bin, patting the inverted plate onto tissue, and then replacing with 10 μL of wash media (Hams/F12 with glutamax and 8 mM HEPES, NB: serum free). Then, the wash media was removed in the same way and replaced with 8 μL/well of the serum free media. Plates were then re-incubated for a further 4 hours at 37° C./5% CO2.
(§3) Compounds for testing were solubilized to 10 mM in DMSO and compound addition plates, consisting of ten-point concentration response curves (CRC) in duplicate points (10 μM top concentration, ½ log dilution series), were prepared by acoustic dispensing and the compound management group.
(§4) After the 4-hour incubation in serum free media, a 4 μL aliquot of the 3×compound solution containing an EC20 of acetylcholine (10 nM final concentration) was added to the cell plate using a 384 well plate to plate transfer. Then, the plate lid was replaced, and the cells incubated for 5 mins at 37° C./5% CO2. Following this final incubation, all cellular processes were stopped by the addition of 4 μL/well of lysis and blocking buffer and plates were incubated for 30 minutes at RT on an orbital shaker (gentle setting). Then, a final addition of 4 μL/well of antibody detection mix, containing both the Europium-Cryptate (donor) and d2 (acceptor) tagged detection components, was added followed by a further 2-hour incubation at RT, and then the plate was read using a TR-FRET (time resolved fluorescence resonance energy transfer) based protocol.

[2] = target: T2, hM4 receptors (Homo sapiens, UniProt P08173); assay: Human M4 PAM PERK assay (CHO cells, TR-FRET, with EC20 acetylcholine); assay type: cell-based
T2 construct: expressed in transfected cells; host or cells: CHO cells
T2 sequence (P08173 1-479): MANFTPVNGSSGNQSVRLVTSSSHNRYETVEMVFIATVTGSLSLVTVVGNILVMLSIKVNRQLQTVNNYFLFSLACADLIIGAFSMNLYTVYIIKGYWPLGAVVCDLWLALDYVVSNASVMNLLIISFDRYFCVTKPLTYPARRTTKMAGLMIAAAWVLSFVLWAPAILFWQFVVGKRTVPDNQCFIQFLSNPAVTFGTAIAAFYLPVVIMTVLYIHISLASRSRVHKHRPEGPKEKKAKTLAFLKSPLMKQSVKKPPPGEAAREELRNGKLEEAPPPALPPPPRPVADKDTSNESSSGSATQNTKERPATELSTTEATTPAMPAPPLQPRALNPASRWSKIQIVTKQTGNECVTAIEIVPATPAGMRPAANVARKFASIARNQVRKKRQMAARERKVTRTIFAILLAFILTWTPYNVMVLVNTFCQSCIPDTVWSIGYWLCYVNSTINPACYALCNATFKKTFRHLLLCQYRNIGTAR
Experimental: as §1, §2, §3, §4

[3] = target: T3, human M4 receptor (Homo sapiens, UniProt P08173); assay: M4 GTPγS PAM assay (CHO-K1 membranes, 35S-GTP binding, with EC20 acetylcholine); assay type: biochemical; conditions: with EC20 acetylcholine (40 nM)
T3 construct: expressed in transfected cells; host or cells: CHO-K1 cells (membranes)
T3 sequence (P08173 1-479): T2 sequence (P08173 1-479)
Experimental: The M4 GTPγS PAM method was used. Membranes were prepared for GTPgS binding assays from CHO-K1 cells stably expressing human M4 receptor. Briefly, cells were grown in 5-layer cell culture flasks. Cells were washed with 50 mL of PBS and then dissociated with 0.05% trypsin. Dissociated cells were then collected by centrifugation at 650×g for 8 minutes at 4° C. Pellets were washed again in PBS by centrifugation and resuspended in 30 mL of 20 mM HEPES, 10 mM EDTA, pH 7.4. After sitting on ice for 30 min, membranes were collected by centrifugation at 50000×g for 15′ at 4° C., resuspended in 30 mL of 20 mM HEPES, 0.1 mM EDTA, pH 7.4 and collected again by centrifugation. Pellets were then washed twice by centrifugation in 30 mL of 20 mM HEPES, pH 7.4, and stored at −80° C. until the day of the assay. On the day of the assay, pellets were thawed on ice and resuspended in 1 mL of 20 mM HEPES, pH 7.4, 10 mM MgCl2, 100 mM NaCl using dounce homogenization. Membrane protein concentration is determined by BCA protein assay (Promega, Madison, WI) according to Promega guidelines.
On the day of the assay, serial dilutions of test PAM compounds were brought up in assay buffer (20 mM HEPES, 10 mM MgCl2, 100 mM NaCl) at 4X final assay concentration. […] of membrane homogenates (containing […] of membrane protein) were prepared in assay buffer supplemented with GDP at […] final assay concentration (final assay concentration of GDP is 5 μM for M2 and 0.1 μM for M4) and dispensed into 96 well polypropylene, U-bottom Greiner plates. 25 ml of vehicle or test PAM compound at 4× of final assay concentration diluted in the assay buffer were added to membrane and plates are incubated for 10-15 minutes at room temperature with gentle shaking. Then, […] of EC20 acetylcholine in assay buffer at 4× final assay concentration was added to assay plates (EC20 final assay concentrations was 40 nM for human M4).
Plates were then incubated, with shaking, for an additional 10-15 minutes. […] of 0.4 nM 35S-GTP (Perkin Elmer, Waltham, MA) in assay buffer was added to assay mixtures. The binding reaction is left on the shaker for 1 hour at room temperature. Membranes in assay reactions were then transferred to GF/C filter plates (Unifilter, Perkin Elmer) and washed three times using a FilterMate Harvester (Perkin Elmer) with cold assay buffer containing no GDP. Filter plates were then dried at 40° C. overnight followed by the addition of […] of Beta Plate Scintillation liquid. Plates are top and bottom sealed before being read on TopCount scintillation counter (Perkin Elmer, Waltham, MA).

Cc1cc(=O)n(C)c2c1CN(C(=O)CC1CN(c3cccc(C(F)(F)F)c3)C1)C2 [Compound I-13]
EC50 [1]: 0.2 to 1 µM
EC50 [2]: 0.2 to 1 µM
EC50 [3]: 0.05 to 0.2 µM

Cc1cc(=O)n(C)c2c1CN(C(=O)CC1CN(c3cccc(C#N)c3)C1)C2 [Compound I-25]
EC50 [1]: 0.2 to 1 µM
EC50 [2]: 0.05 to 0.2 µM
EC50 [3]: 0.2 to 1 µM

Cc1c2c(n(C)c(=O)c1Cl)CN(C(=O)CC1CN(c3ccnc(C(F)(F)F)c3)C1)C2C (stereo not drawn) [Compound I-118, 3-Chloro-1,4,5-trimethyl-6-(2-(1-(2-(trifluoromethyl)pyridin-4-yl)azetidin-3-yl)acetyl)-1,5,6,7-tetrahydro-2H-pyrrolo[3,4-b]pyridin-2-one]
EC50 [1]: 0.05 to 0.2 µM
EC50 [2]: < 0.05 µM
EC50 [3]: < 0.05 µM

Cc1cc(=O)n(C)c2c1CN(C(=O)CC1CN(c3cnnc(C(F)(F)F)c3)C1)C2 [Compound I-30]
EC50 [1]: 0.05 to 0.2 µM
EC50 [2]: 0.05 to 0.2 µM
EC50 [3]: 0.2 to 1 µM

Cc1cc(=O)n(C)c2c1CN(C(=O)CC1CN(c3ccc4c(c3)COC4)C1)C2 [Compound I-16]
EC50 [1]: 0.2 to 1 µM
EC50 [2]: 0.05 to 0.2 µM
EC50 [3]: 0.2 to 1 µM

Cc1cc(=O)n(C)c2c1CN(C(=O)CC1CN(c3ccnc(C4CC4)c3)C1)C2 [Compound I-22]
EC50 [1]: 0.2 to 1 µM
EC50 [2]: 0.05 to 0.2 µM
EC50 [3]: 0.2 to 1 µM

Cc1c2c(n(C)c(=O)c1Cl)CN(C(=O)CC1CN(c3ccc(C(F)(F)F)cc3)C1)C2 [Compound I-68]
EC50 [1]: < 0.05 µM
EC50 [2]: < 0.05 µM
EC50 [3]: < 0.05 µM

Cc1c2c(n(CC(F)(F)F)c(=O)c1Cl)CN(C(=O)CC1CN(c3ccncn3)C1)C2 [Compound I-95]
EC50 [1]: > 1 µM
EC50 [2]: 0.05 to 0.2 µM
EC50 [3]: 0.05 to 0.2 µM

Cc1cc(=O)n(C)c2c1[C@H](C)N(C(=O)CC1CN(c3ccc(C(F)(F)F)cc3)C1)C2 [Compound I-116, (S)-1,4,5-trimethyl-6-(2-(1-(4-(trifluoromethyl)phenyl)azetidin-3-yl)acetyl)-1,5,6,7-tetrahydro-2H-pyrrolo[3,4-b]pyridin-2-one]
EC50 [1]: > 1 µM
EC50 [2]: > 1 µM
EC50 [3]: > 1 µM

Cc1c2c(n(C)c(=O)c1C)CN(C(=O)CC1CN(c3ccc(C(F)(F)F)cc3)C1)C2 [Compound I-43]
EC50 [1]: 0.05 to 0.2 µM
EC50 [2]: 0.05 to 0.2 µM
EC50 [3]: < 0.05 µM

Cc1cc(=O)n(C)c2c1CN(C(=O)CC1CN(c3nc(C(F)(F)F)ns3)C1)C2 [Compound I-28]
EC50 [1]: 0.2 to 1 µM
EC50 [2]: 0.2 to 1 µM
EC50 [3]: 0.2 to 1 µM

Cc1cc(=O)n(C)c2c1CN(C(=O)CC1CN(c3cnc(C(F)(F)F)nc3)C1)C2 [Compound I-21]
EC50 [1]: 0.05 to 0.2 µM
EC50 [2]: 0.2 to 1 µM
EC50 [3]: > 1 µM

Cc1cc(=O)n(C)c2c1CN(C(=O)CC1CN(c3cnn(C(F)(F)F)c3)C1)C2 [Compound I-34]
EC50 [1]: > 1 µM
EC50 [2]: > 1 µM
EC50 [3]: > 1 µM

Cc1c2c(n(C)c(=O)c1Cl)CN(C(=O)C(C)C1CN(c3ccnc(C(F)(F)F)c3)C1)C2 (single isomer, unassigned) [Compound I-82, 3-Chloro-1,4-dimethyl-6-(2-(1-(2-(trifluoromethyl)pyridin-4-yl)azetidin-3-yl)propanoyl)-1,5,6,7-tetrahydro-2H-pyrrolo[3,4-b]pyridin-2-one]
EC50 [1]: > 1 µM
EC50 [2]: > 1 µM
EC50 [3]: > 1 µM

Cc1cc(=O)n(C)c2c1CN(C(=O)CC1CN(c3cnc(C(F)(F)F)cn3)C1)C2 [Compound I-26]
EC50 [1]: 0.05 to 0.2 µM
EC50 [2]: 0.2 to 1 µM
EC50 [3]: > 1 µM

COc1cc(N2CC(CC(=O)N3Cc4c(C)cc(=O)n(C)c4C3)C2)cc(C(F)(F)F)n1 [Compound I-39, 6-(2-(1-(2-Methoxy-6-(trifluoromethyl)pyridin-4-yl)azetidin-3-yl)acetyl)-1,4-dimethyl-1,5,6,7-tetrahydro-2H-pyrrolo[3,4-b]pyridin-2-one]
EC50 [1]: 0.2 to 1 µM
EC50 [2]: 0.05 to 0.2 µM
EC50 [3]: 0.2 to 1 µM

Cc1cc(=O)n(C)c2c1CN(C(=O)CC1CN(c3ccc(C#N)cc3)C1)C2 [Compound I-17]
EC50 [1]: 0.05 to 0.2 µM
EC50 [2]: < 0.05 µM
EC50 [3]: 0.05 to 0.2 µM

Cc1cc(=O)n(C)c2c1CN(C(=O)CC1CN(c3ncns3)C1)C2 [Compound I-18]
EC50 [1]: > 1 µM
EC50 [2]: 0.2 to 1 µM
EC50 [3]: 0.2 to 1 µM

Cc1c2c(n(C)c(=O)c1Cl)CN(C(=O)CC1CN(c3ncns3)C1)C2 [Compound I-80]
EC50 [1]: 0.2 to 1 µM
EC50 [2]: < 0.05 µM
EC50 [3]: 0.05 to 0.2 µM

Cc1cc(=O)n(C)c2c1[C@@H](C)N(C(=O)CC1CN(c3ccc(C(F)(F)F)cc3)C1)C2 [Compound I-117, (R)-1,4,5-trimethyl-6-(2-(1-(4-(trifluoromethyl)phenyl)azetidin-3-yl)acetyl)-1,5,6,7-tetrahydro-2H-pyrrolo[3,4-b]pyridin-2-one]
EC50 [1]: 0.2 to 1 µM
EC50 [2]: 0.2 to 1 µM
EC50 [3]: < 0.05 µM

Cc1c2c(n(C)c(=O)c1C)CN(C(=O)CC1CN(c3ccc(C4CC4)c(F)c3)C1C)C2 (single isomer, unassigned) [Compound I-61]
EC50 [1]: < 0.05 µM
EC50 [2]: < 0.05 µM
EC50 [3]: < 0.05 µM

Cc1cc(=O)n(C)c2c1CN(C(=O)CC1CN(c3cccnc3)C1)C2 [Compound I-3]
EC50 [1]: 0.2 to 1 µM
EC50 [2]: 0.05 to 0.2 µM
EC50 [3]: < 0.05 µM

Cc1cc(=O)n(C)c2c1CN(C(=O)CC1CN(c3cccc(F)c3C)C1)C2 [Compound I-33]
EC50 [1]: 0.2 to 1 µM
EC50 [2]: 0.05 to 0.2 µM
EC50 [3]: 0.2 to 1 µM

Cc1cc(=O)n(C)c2c1C(C)N(C(=O)CC1CN(c3ccc(C(F)(F)F)cc3)C1)C2 (stereo not drawn) [Compound I-115]
EC50 [1]: 0.2 to 1 µM
EC50 [2]: 0.2 to 1 µM
EC50 [3]: 0.05 to 0.2 µM
